≈ marks a conversion by molar mass, not a printed value. Where “and” joins values, the source holds several entries; their conditions need not be identical. Identical values can stand only once. Like-named read-outs stand apart in the source and are kept apart here.
Key:
M. bovis BCG [1] = format: cell-based, Mycobacterium bovis BCG; conditions: 15 μM or 8 μg/mL, equivalent to 230x MIC50
M. bovis BCG [2] = assay: microbe, parasite or virus in culture; format: cell-based, Mycobacterium bovis BCG
M. bovis BCG [3] = format: cell-based, Mycobacterium bovis BCG
Mab abscessus ATCC 19977 = assay: MIC against Mab abscessus ATCC 19977; format: cell-based, Mycobacterium abscessus subsp. abscessus; conditions: for MIC50: ATCC19977, 72 h; for MIC50 / MIC50 Mab abscessus ATCC 19977: 3 days
Mab abscessus = assay: Time-kill kinetics, Mab abscessus; format: cell-based, Mycobacterium abscessus subsp. abscessus; conditions: BDQ alone 4x to 32x MIC90 (0.84–6.7 μg/mL)
[4] = system: Mab bolletii CCUG 50184-T; assay: MIC against Mab bolletii CCUG 50184-T; format: cell-based, Mycobacterium abscessus subsp. bolletii; conditions: for MIC50: CCUG50184, 72 h; for MIC50 / MIC50 Mab bolletii CCUG 50184-T: 3 days
Mab complex = assay: MIC against Mab complex (summary over the 3 subspecies); format: cell-based, Mycobacterium abscessus; conditions: Mycobacteroides abscessus, read-out: MIC90 Mab complex
clinical isolates of Mab = assay: MIC50 against Mab clinical isolates; format: cell-based, Mycobacterium abscessus; conditions: Mycobacteroides abscessus
[5] = system: Mab massiliense CCUG 48898-T; assay: MIC against Mab massiliense CCUG 48898-T; format: cell-based, Mycobacterium abscessus subsp. massiliense; conditions: for MIC50: CCUG48898, 72 h; for MIC50 / MIC50 Mab massiliense CCUG 48898-T: 3 days
Mtb H37Rv [6] = conditions: minimum concentration to inhibit growth of Mtb H37RV by 99%; cited from earlier work
M. bovis BCG [7] = format: cell-based, Mycobacterium bovis BCG; conditions: 0.5x to 4x MIC90BCG
M. bovis BCG [8] = conditions: 2x MIC90 over 24 h
M. bovis BCG [9] = format: cell-based, Mycobacterium bovis BCG; conditions: 2x MIC90BCG over 48 h
M. bovis BCG [10] = format: cell-based, Mycobacterium bovis BCG; conditions: 24 h
M. bovis BCG [11] = format: cell-based, Mycobacterium bovis BCG; remark: listed apart in the source
Mtb H37Rv [12] = assay: MIC by broth microdilution against Mtb H37Rv; format: cell-based, Mycobacterium tuberculosis; conditions: incubation 5 days
HepG2 = assay: Cytotoxicity in HepG2 cells; format: cell-based, human; conditions: 48 h, growth suppressed by 50% vs untreated
Description: (§1) To each well in a 96-well plate, 50,000 cells in 100 μL media were seeded. Vero E6 and HepG2 cells were incubated overnight in DMEM for cell adherence at 37°C and 5% CO2. The media was removed from the wells and 100 μL solution made up of fresh DMEM media (99 μL) and the test compound (1 μL from a DMSO stock solution that was […] more concentrated than the final concentration in the well) was then added to each well. DMSO content of each well was consistently kept at 0.5 %v/v. Treated plates were incubated for 48 h (5% CO2, 37°C), after which 10 μL of Celltitre 96 Aqueous One Solution was added to each well, without removal of media, and incubated for a further 3 h. Subsequently, absorbance readings were taken at 490 nm on a Tecan GENios Microplate Reader.
(§2) Cell viability was determined from the expression: Cellviability(%)={[Absorbance(cells+cpd)−Absorbance(cpd)]/[Absorbance(cells+vc)−Absorbance(vc)]}×100% where Absorbance (cells + cpd) = absorbance of wells containing cells and test compound in vehicle (media +0.5% DMSO); Absorbance (cpd) = absorbance of wells containing test compound in vehicle without cells (compound control); Absorbance (cells + vc) = absorbance of wells containing cells in vehicle (vc) only (untreated cells); Absorbance (vc) = absorbance of wells containing vehicle without cells (vehicle control). The percentage viability readings were plotted against log(concentration) on GraphPad Prism (Version 7.0, San Diego, CA) to give a sigmoidal curve, from which IC50, defined as the concentration of the compound that reduced cell viability by 50%, was obtained. At least 3 separate determinations were carried out.

Vero E6 = assay: Cytotoxicity in Vero E6 cells; format: cell-based, African green monkey; conditions: 48 h, growth suppressed by 50% vs untreated
Description: as §1, §2

M. bovis BCG-pclgR-RFP = format: cell-based, Mycobacterium bovis BCG; conditions: 0.25x – 2x MIC90 (controls 10 μM), 24 h
M. bovis BCG [13] = format: cell-based, Mycobacterium bovis BCG; conditions: PhA2 2x–4x MIC90BCG, TDZ 80 μM, 24 h
[14] = Mycobacterium tuberculosis variant bovis BCG, BCG, M. bovis BCG, broth dilution, growth reduced by 50% vs untreated
[15] = Mycobacterium tuberculosis variant bovis BCG, BCG, M. bovis BCG, broth dilution, growth reduced by 90% vs untreated
[16] = Mycobacterium tuberculosis variant bovis BCG, BCG, read-out: MIC90 BCG, M. bovis BCG
[17] = Mycobacteroides abscessus, 7H9 medium (first value of cell)
[18] = Mycobacteroides abscessus, CA-MHB medium (second value of cell)
[19] = Mycobacterium tuberculosis variant bovis BCG, BCG, read-out: MIC90 (Table S1), M. bovis BCG, broth dilution
[20] = 7H9 medium (first value of cell)
[21] = CA-MHB medium (second value of cell)

COc1nc2ccc(Br)cc2cc1[C@@H](c1ccccc1)[C@@](O)(CCN(C)C)c1cccc2ccccc12 [BDQ, bedaquiline]
oxygen consumption rate (M. bovis BCG [1]): sharp increase in OCR
MIC50 (M. bovis BCG [2]; [14]): 0.065 µM
MIC90 (M. bovis BCG [2]; [15]): 0.25 µM
MIC50 (M. bovis BCG [2]; Mycobacterium tuberculosis variant bovis BCG, BCG, read-out: MIC50 BCG): 0.036 µg/mL
MIC90 (M. bovis BCG [2]; [16]): 0.14 µg/mL
reduction in CFU (M. bovis BCG [3]; BDQ alone 4x MIC90BCG (0.56 μg/mL), 28-day time point): 10 fold
MIC90 (Mab abscessus ATCC 19977; Mycobacteroides abscessus, ATCC19977, Mab abscessus, read-out: MIC90 abscessus): 0.37 µM and 0.21 µg/mL
bactericidal activity (Mab abscessus): none to be bactericidal

CC[C@H]1OC(=O)[C@H](C)[C@@H](O[C@H]2C[C@@](C)(OC)[C@@H](O)[C@H](C)O2)[C@H](C)[C@@H](O[C@@H]2O[C@H](C)C[C@H](N(C)C)[C@H]2O)[C@](C)(OC)C[C@@H](C)C(=O)[C@H](C)[C@@H](O)[C@]1(C)O [CLR, clarithromycin, reference compound]
MIC90 ([4]; Mycobacteroides abscessus, CCUG50184, 7H9 broth (first value)): 19 µM (≈ 14.2 µg/mL)
MIC50 [4, 17]: 8.8 µM (≈ 6.58 µg/mL)
MIC50 [4, 18]: 1 µM (≈ 0.748 µg/mL)
MIC90 ([4]; Mycobacteroides abscessus, CCUG50184, camH broth (second value)): 11 µM (≈ 8.23 µg/mL)
MIC90 (Mab complex): 0.1 to 8.8 µM
MIC90 (Mab complex; range over subspecies, positive control): 0.08 to 6.6 µg/mL
MIC50 (clinical isolates of Mab; Mab clinical isolate M9, 7H9 broth, read-out: MIC50 M9): 0.1 µM (≈ 0.0748 µg/mL)
MIC50 (clinical isolates of Mab; Mab clinical isolate M111, 7H9 broth, read-out: MIC50 M111): 0.08 µM (≈ 0.0598 µg/mL)
MIC50 (clinical isolates of Mab; Mab clinical isolate M232, 7H9 broth, read-out: MIC50 M232): 0.27 µM (≈ 0.202 µg/mL)
MIC50 (clinical isolates of Mab; Mab clinical isolate M337, 7H9 broth, read-out: MIC50 M337): 0.15 µM (≈ 0.112 µg/mL)
MIC50 (clinical isolates of Mab; Mab clinical isolate M404, 7H9 broth, read-out: MIC50 M404): 0.1 µM (≈ 0.0748 µg/mL)
MIC50 (clinical isolates of Mab; Mab clinical isolate M422, 7H9 broth, read-out: MIC50 M422): 0.22 µM (≈ 0.165 µg/mL)
MIC50 (clinical isolates of Mab; Mab clinical isolate M506, 7H9 broth, read-out: MIC50 M506): 0.09 µM (≈ 0.0673 µg/mL)
MIC90 (Mab abscessus ATCC 19977; Mycobacteroides abscessus, ATCC19977, 7H9 broth (first value), read-out: MIC90 Mab abscessus ATCC 19977): 0.5 µM (≈ 0.374 µg/mL)
MIC50 (Mab abscessus ATCC 19977; [17]): 0.2 µM (≈ 0.15 µg/mL)
MIC50 (Mab abscessus ATCC 19977; [18]): 0.15 µM (≈ 0.112 µg/mL)
MIC90 (Mab abscessus ATCC 19977; Mycobacteroides abscessus, ATCC19977, camH broth (second value), read-out: MIC90 Mab abscessus ATCC 19977): 0.4 µM (≈ 0.299 µg/mL)
MIC90 ([5]; Mycobacteroides abscessus, CCUG48898, 7H9 broth (first value)): 2 µM (≈ 1.5 µg/mL)
MIC50 [5, 17]: 0.5 µM (≈ 0.374 µg/mL)
MIC50 [5, 18]: 0.1 µM (≈ 0.0748 µg/mL)
MIC90 ([5]; Mycobacteroides abscessus, CCUG48898, camH broth (second value)): 0.23 µM (≈ 0.172 µg/mL)

COc1ccc(C(C#N)(CCCN2CCN(c3ccccc3F)CC2)C(C)C)cc1OC (centres unmarked) [Compound A1, reference compound]
MIC50 (M. bovis BCG [2]; [14]): 87 µM
MIC90 (M. bovis BCG [2]; [15]): 138 µM
MIC90 (M. bovis BCG [2]; [19]): 138 µM
MIC99 Mtb (Mtb H37Rv [6]): 62.5 µM (≈ 27.5 µg/mL)

COc1ccc(CCN(C)CCCC(C#N)(c2ccc(OC)c(OC)c2)C2CCCCC2)cc1OC (centres unmarked) [Compound A2, reference compound]
MIC50 (M. bovis BCG [2]; [14]): 36 µM
MIC90 (M. bovis BCG [2]; [15]): 118 µM
MIC90 (M. bovis BCG [2]; [19]): 118 µM
MIC99 Mtb (Mtb H37Rv [6]): 62.5 µM (≈ 30.9 µg/mL)

NNC(=O)c1ccncc1 [INH, isoniazid, reference compound]
MIC90 BCG (M. bovis BCG [2]; M. bovis BCG): 0.4 µg/mL (≈ 2.92 µM)
MIC90 (M. bovis BCG [2]; [15]): 3.4 µM
MIC90 (M. bovis BCG [2]; [19]): 3.5 µM
MIC90 (M. bovis BCG [2]; [16]): 0.45 µg/mL
regrowth in time-kill curve (M. bovis BCG [3]; 2xMIC90BCG, 21 days): uptick in CFUs was observed after 5 days
formazan formation from MTS (M. bovis BCG [7]): increased formazan formation
membrane permeabilization (M. bovis BCG [8]): negligible permeabilization
effect on ATP levels (M. bovis BCG [9]): marked surge in ATP levels
methylene blue decolorization (O2 uptake) (M. bovis BCG [10]; 4xMIC90BCG (1.6 μg/mL)): Decolorization (active O2 uptake)

COc1ccc(CCN(C)CCCC(C#N)(CCC2CCCCC2)c2ccc(OC)c(OC)c2)cc1OC (centres unmarked) [PhA1]
MIC50 (M. bovis BCG [2]): 12 µM
MIC50 BCG With Glycerol (M. bovis BCG [2]): 12 µM (≈ 6.27 µg/mL)
MIC50 BCG Without Glycerol (M. bovis BCG [2]): 21 µM (≈ 11 µg/mL)
MIC90 (Table S1) (M. bovis BCG [2]): 25 µM (≈ 13.1 µg/mL)
MIC90 ([4]; 7H9 broth (first value)): 109 µM (≈ 57 µg/mL)
MIC50 Mab bolletii CCUG 50184-T [4, 20]: 97 µM (≈ 50.7 µg/mL)
MIC50 Mab bolletii CCUG 50184-T [4, 21]: 22 µM (≈ 11.5 µg/mL)
MIC90 ([4]; camH broth (second value)): 61 µM (≈ 31.9 µg/mL)
CFUs above the detection limit (M. bovis BCG [3]): 10–100 times
MBC99.9 (10^3-fold kill) (M. bovis BCG [11]): 4 x MIC90
MIC50 Mtb H37Rv (Mtb H37Rv [12]; first value of cell MIC50/MIC90): 19 µM (≈ 9.93 µg/mL)
MIC90 (Mtb H37Rv [12]; second value of cell MIC50/MIC90, read-out: MIC90 Mtb H37Rv): 43 µM (≈ 22.5 µg/mL)
IC50 (HepG2): 34 µM
MIC90 (Mab abscessus ATCC 19977; 7H9 broth (first value), read-out: MIC90 Mab abscessus ATCC 19977): 115 µM (≈ 60.1 µg/mL)
MIC50 Mab abscessus ATCC 19977 (Mab abscessus ATCC 19977; [20]): 76 µM (≈ 39.7 µg/mL)
MIC50 Mab abscessus ATCC 19977 (Mab abscessus ATCC 19977; [21]): 25 µM (≈ 13.1 µg/mL)
MIC90 (Mab abscessus ATCC 19977; camH broth (second value), read-out: MIC90 Mab abscessus ATCC 19977): 54 µM (≈ 28.2 µg/mL)
IC50 (Vero E6): 51 µM
MIC90 ([5]; 7H9 broth (first value)): 106 µM (≈ 55.4 µg/mL)
MIC50 Mab massiliense CCUG 48898-T [5, 20]: 100 µM (≈ 52.3 µg/mL)
MIC50 Mab massiliense CCUG 48898-T [5, 21]: 15 µM (≈ 7.84 µg/mL)
MIC90 ([5]; camH broth (second value)): 125 µM (≈ 65.3 µg/mL)

CO[C@H]1/C=C/O[C@@]2(C)Oc3c(C)c(O)c4c(O)c(c(/C=N/N5CCN(C)CC5)c(O)c4c3C2=O)NC(=O)/C(C)=C\C=C\[C@H](C)[C@H](O)[C@@H](C)[C@@H](O)[C@@H](C)[C@H](OC(C)=O)[C@@H]1C [RIF, rifampin, reference compound]
MIC90 (M. bovis BCG [2]; Mycobacterium tuberculosis variant bovis BCG, BCG, read-out: MIC90 BCG): 0.04 µM and 0.033 µg/mL
induction of pclgR promoter activity (M. bovis BCG-pclgR-RFP): No induction

CSc1ccc2c(c1)N(CCC1CCCCN1C)c1ccccc1S2 (centres unmarked) [TDZ, thioridazine, reference compound]
MIC90 (M. bovis BCG [2]; [15]): 30 µM
MIC90 (M. bovis BCG [2]; [16]): 11 µg/mL
NADH/NAD+ ratio (M. bovis BCG [13]): higher ratios
methylene blue decolorization (O2 uptake) (M. bovis BCG [10]; 80 μM, 30 μg/mL): No decolorization
